Laboratory results: the NIST ThermoML archive (doi:10.1016/j.jct.2018.02.013)

How the values were obtained:
[1] = 101.33 kPa, Liquid; for thermal conductivity: transient hot wire; for mass density: Vibrating tube method; for viscosity: Cone and plate viscometry; for electrical conductivity: Direct current cell with electrodes
[2] = molar heat capacity at constant pressure; conditions: 101.33 kPa, Liquid, Small sample (50 mg) DSC
[3] = wn = mass fraction of the nth substance listed; conditions: 101 kPa, Liquid, w2 = 0.1415; for mass density: Vibrating tube method; for viscosity: Cone and plate viscometry; for thermal conductivity: transient hot wire; for electrical conductivity: Direct current cell with electrodes
[4] = molar heat capacity at constant pressure; wn = mass fraction of the nth substance listed; conditions: 101 kPa, Liquid, Small sample (50 mg) DSC, w2 = 0.1415

CCCCCCCCCC(=O)[O-].CCCCCCCCCCCCCC[P+](CCCCCC)(CCCCCC)CCCCCC [trihexyltetradecylphosphonium decanoate]
Conditions	electrical conductivity [S/m]	mass density [kg/m3]	molar heat capacity at constant pressure [J/K/mol]	thermal conductivity [W/m/K]	viscosity [mPa·s]
[1], 278.09 K	–	–	–	0.1601	–
[1], 288 K	–	–	–	0.1591	–
[1], 293.15 K	–	880.4	–	–	–
[1], 293.2 K	–	–	–	–	546.3
[1], 297.79 K	–	–	–	0.1571	–
[1], 298.15 K	–	877.3	–	–	–
[1], 298.2 K	–	–	–	–	409.8
[1], 298.8 K	0.00174	–	–	–	–
[1], 303.15 K	–	874.6	–	–	–
[1], 303.2 K	–	–	–	–	314.5
[1], 303.8 K	0.00239	–	–	–	–
[1], 308 K	0.00297	–	–	–	–
[1], 308.16 K	–	–	–	0.1545	–
[1], 308.2 K	–	–	–	–	242.5
[1], 313.15 K	–	868.1	–	–	–
[1], 313.2 K	–	–	–	–	189.8
[1], 313.8 K	0.00395	–	–	–	–
[1], 318.13 K	–	–	–	0.1542	–
[1], 318.2 K	–	–	–	–	151.3
[1], 319.6 K	0.00506	–	–	–	–
[1], 323.15 K	–	862	–	–	–
[1], 323.2 K	0.00631	–	–	–	121.8
[1], 326.82 K	–	–	–	0.1535	–
[1], 328.2 K	0.00763	–	–	–	99.78
[1], 333.15 K	–	855.7	–	–	–
[1], 333.2 K	–	–	–	–	82.68
[1], 333.4 K	0.00949	–	–	–	–
[1], 338.2 K	–	–	–	–	68.76
[1], 338.3 K	0.0118	–	–	–	–
[1], 338.5 K	–	–	–	0.1515	–
[1], 343.15 K	–	849.7	–	–	–
[1], 343.2 K	–	–	–	–	58.07
[1], 343.5 K	0.0137	–	–	–	–
[1], 347.3 K	–	–	–	0.1502	–
[1], 348.2 K	–	–	–	–	49.28
[1], 349.7 K	0.0171	–	–	–	–
[1], 353.15 K	–	843.3	–	–	–
[1], 353.2 K	–	–	–	–	42.21
[1], 358.2 K	–	–	–	–	36.41
[1], 358.21 K	–	–	–	0.1493	–
[1], 363.15 K	–	837.4	–	–	–
[1], 363.2 K	–	–	–	–	31.71
[1], 368.2 K	–	–	–	–	27.59
[2], 293.15 K	–	–	1181.2	–	–
[2], 298.15 K	–	–	1191.7	–	–
[2], 303.15 K	–	–	1199.5	–	–
[2], 308.15 K	–	–	1209.3	–	–
[2], 313.15 K	–	–	1217.2	–	–
[2], 318.15 K	–	–	1221.8	–	–
[2], 323.15 K	–	–	1230.3	–	–
[2], 328.15 K	–	–	1238.2	–	–
[2], 333.15 K	–	–	1246	–	–
[2], 338.15 K	–	–	1250.6	–	–
[2], 343.15 K	–	–	1264.4	–	–
[2], 348.15 K	–	–	1269.6	–	–
[2], 353.15 K	–	–	1278.8	–	–
[2], 358.15 K	–	–	1285.3	–	–
[2], 363.15 K	–	–	1296.5	–	–

CCCCCCCCCC(=O)[O-].CCCCCCCCCCCCCC[P+](CCCCCC)(CCCCCC)CCCCCC [trihexyltetradecylphosphonium decanoate] + O
Conditions	electrical conductivity [S/m]	mass density [kg/m3]	molar heat capacity at constant pressure [J/K/mol]	thermal conductivity [W/m/K]	viscosity [mPa·s]
[3], 298.15 K	–	899.1	–	–	–
[3], 298.2 K	–	–	–	–	91.87
[3], 298.55 K	–	–	–	0.1861	–
[3], 299.2 K	0.03	–	–	–	–
[3], 303.15 K	–	895.8	–	–	–
[3], 303.2 K	–	–	–	–	76.66
[3], 303.6 K	0.0369	–	–	–	–
[3], 307.51 K	–	–	–	0.1849	–
[3], 308.2 K	–	–	–	–	64.23
[3], 308.8 K	0.0436	–	–	–	–
[3], 313.15 K	–	889	–	–	–
[3], 313.2 K	0.0524	–	–	–	53.34
[3], 317.84 K	–	–	–	0.1829	–
[3], 318.2 K	–	–	–	–	45
[3], 318.8 K	0.0639	–	–	–	–
[3], 323.15 K	–	882.3	–	–	–
[3], 323.2 K	–	–	–	–	37.98
[3], 323.6 K	0.0733	–	–	–	–
[3], 328.2 K	–	–	–	–	32.86
[3], 328.68 K	–	–	–	0.1809	–
[3], 328.8 K	0.0865	–	–	–	–
[3], 333.15 K	–	875.4	–	–	–
[3], 333.2 K	0.1	–	–	–	28.28
[3], 337.66 K	–	–	–	0.1799	–
[3], 338.2 K	–	–	–	–	24.62
[3], 338.8 K	0.118	–	–	–	–
[3], 343.15 K	–	868.2	–	–	–
[3], 343.2 K	–	–	–	–	21.4
[3], 343.8 K	0.132	–	–	–	–
[3], 347.13 K	–	–	–	0.1785	–
[3], 348.2 K	–	–	–	–	18.91
[3], 348.9 K	0.156	–	–	–	–
[3], 353.15 K	–	860.8	–	–	–
[3], 353.2 K	–	–	–	–	17.1
[3], 358.2 K	–	–	–	0.1762	15.4
[3], 363.15 K	–	853.7	–	–	–
[3], 363.2 K	–	–	–	–	13.95
[3], 368.2 K	–	–	–	–	12.08
[4], 298.15 K	–	–	313.81	–	–
[4], 303.15 K	–	–	319.48	–	–
[4], 308.15 K	–	–	323.73	–	–
[4], 313.15 K	–	–	326.79	–	–
[4], 318.15 K	–	–	328.54	–	–
[4], 323.15 K	–	–	332.14	–	–
[4], 328.15 K	–	–	335.3	–	–
[4], 333.15 K	–	–	338.57	–	–
[4], 338.15 K	–	–	341.41	–	–
[4], 343.15 K	–	–	344.47	–	–
[4], 348.15 K	–	–	348.72	–	–
[4], 353.15 K	–	–	351.99	–	–
[4], 358.15 K	–	–	355.6	–	–
[4], 363.15 K	–	–	360.72	–	–
